# Laboratory results from the supplement of paper PMC10307832.
# How the values were obtained:
# Assay in all cases: relative viability (nuclei count vs DMSO), 5 days (fraction); higher = more cells survive
# TGX 221 + Navitoclax = compound: CC1=CN2C(=O)C=C(N=C2C(=C1)C(C)NC3=CC=CC=C3)N4CCOCC4 [TGX 221] + CC1(C)CCC(c2ccc(Cl)cc2)=C(CN2CCN(c3ccc(C(=O)NS(=O)(=O)c4ccc(N[C@H](CCN5CCOCC5)CSc5ccccc5)c(S(=O)(=O)C(F)(F)F)c4)cc3)CC2)C1 [Navitoclax] (partner 0.5 µM)
# In short: (§1)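 After 5 days of treatment, lung cancer cells in 1536-well plates were fixed and stained in a single step (final 0.05% Triton X-100, 1% formaldehyde, 1 ug/ml Hoechst) and their nuclei counted on 4× images. Treatment had been applied by pin tool the day after seeding as one drug alone or as a fixed anchor-drug dose with five library-drug doses (not always all listed) in √10 steps. Relative viability is the nuclei count of treated wells divided by that of vehicle wells, and values are medians of duplicate plates.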
# [1] = compound: C1=CC=C(C(=C1)C2=CC=C(C=C2)C3=CSC4=C3C(=C(C(=O)N4)C#N)O)O + Nc1ncn([C@H]2C[C@H](O)[C@@H](CO)O2)c(=O)n1 [Decitabine] (partner 2 µM)
# In short: as §1
# TGX 221 + AZD7762 = compound: CC1=CN2C(=O)C=C(N=C2C(=C1)C(C)NC3=CC=CC=C3)N4CCOCC4 [TGX 221] + NC(=O)Nc1cc(-c2cccc(F)c2)sc1C(=O)N[C@H]1CCCNC1 [AZD7762] (partner 0.2 µM)
# In short: as §1
# [2] = compound: C1=CC=C(C(=C1)C2=CC=C(C=C2)C3=CSC4=C3C(=C(C(=O)N4)C#N)O)O + COc1cccc2cc(-c3nc([C@H]4CC[C@H](C(=O)O)CC4)n4ncnc(N)c34)[nH]c12 [OSI-027] (partner 0.5 µM)
# In short: as §1
Cell Line,relative viability (TGX 221 + Navitoclax; first compound 0.08 µM),relative viability (TGX 221 + Navitoclax; first compound 0.253 µM),relative viability (TGX 221 + Navitoclax; first compound 0.8 µM),relative viability (TGX 221 + Navitoclax; first compound 2.53 µM),relative viability (TGX 221 + Navitoclax; first compound 8 µM),relative viability ([1]; first compound 0.08 µM),relative viability ([1]; first compound 0.253 µM),relative viability ([1]; first compound 0.8 µM),relative viability ([1]; first compound 2.53 µM),relative viability ([1]; first compound 8 µM),relative viability (TGX 221 + AZD7762; first compound 0.08 µM),relative viability (TGX 221 + AZD7762; first compound 0.253 µM),relative viability (TGX 221 + AZD7762; first compound 0.8 µM),relative viability (TGX 221 + AZD7762; first compound 2.53 µM),relative viability (TGX 221 + AZD7762; first compound 8 µM),relative viability ([2]; first compound 0.08 µM),relative viability ([2]; first compound 0.253 µM),relative viability ([2]; first compound 0.8 µM),relative viability ([2]; first compound 2.53 µM),relative viability ([2]; first compound 8 µM)
NCI-H1437,1.05,1.07,1.11,1.07,0.893,0.515,0.674,0.57,0.596,0.466,1.11,1.12,1.11,1.07,1.01,0.869,1.05,0.868,0.873,0.703
PC-3 [JPC-3],0.722,0.768,0.847,0.806,0.863,0.806,0.879,0.844,0.956,0.805,0.689,0.72,0.817,0.755,0.758,0.637,0.777,0.704,0.93,0.719
NCI-H1395,1.02,0.907,0.986,0.957,0.763,–,0.801,0.703,0.702,0.745,0.398,0.383,0.385,0.413,0.39,0.501,0.647,0.637,0.644,0.576
NCI-H1651,0.977,0.964,0.948,0.734,0.733,0.538,0.639,0.548,0.593,0.464,0.384,0.468,0.439,0.414,0.368,0.66,0.76,0.715,0.576,0.448
NCI-H23,0.753,0.763,0.832,0.608,0.713,0.305,0.33,0.337,0.327,0.312,0.277,0.213,0.269,0.217,0.201,0.69,0.523,0.596,0.575,0.537
